SMILES: Cl.c1ccc2c(CC3=NCCN3)cccc2c1
- solubility (mole fraction) (in 2-methoxyethanol, 278.15 K): 0.0132
- solubility (mole fraction) (in 2-methoxyethanol, 283.15 K): 0.0157
- solubility (mole fraction) (in 2-methoxyethanol, 288.15 K): 0.0184
- solubility (mole fraction) (in 2-methoxyethanol, 293.15 K): 0.0214
- solubility (mole fraction) (in 2-methoxyethanol, 298.15 K): 0.0246
- solubility (mole fraction) (in 2-methoxyethanol, 303.15 K): 0.0287
- solubility (mole fraction) (in 2-methoxyethanol, 308.15 K): 0.0329
- solubility (mole fraction) (in 2-methoxyethanol, 313.15 K): 0.0366
- solubility (mole fraction) (in 2-methoxyethanol, 318.15 K): 0.0419
- solubility (mole fraction) (in 2-methoxyethanol, 323.15 K): 0.0476
- solubility (mole fraction) (in ethanol, 278.15 K): 0.00313
- solubility (mole fraction) (in ethanol, 283.15 K): 0.00386
- solubility (mole fraction) (in ethanol, 288.15 K): 0.00457
- solubility (mole fraction) (in ethanol, 293.15 K): 0.00545
- solubility (mole fraction) (in ethanol, 298.15 K): 0.00639
- solubility (mole fraction) (in ethanol, 303.15 K): 0.0076
- solubility (mole fraction) (in ethanol, 308.15 K): 0.00893
- solubility (mole fraction) (in ethanol, 313.15 K): 0.0104
- solubility (mole fraction) (in ethanol, 318.15 K): 0.012
- solubility (mole fraction) (in ethanol, 323.15 K): 0.014
- solubility (mole fraction) (in isopropanol, 278.15 K): 0.000605
- solubility (mole fraction) (in isopropanol, 283.15 K): 0.000784
- solubility (mole fraction) (in isopropanol, 288.15 K): 0.00101
- solubility (mole fraction) (in isopropanol, 293.15 K): 0.0013
- solubility (mole fraction) (in isopropanol, 298.15 K): 0.00169
- solubility (mole fraction) (in isopropanol, 303.15 K): 0.00202
- solubility (mole fraction) (in isopropanol, 308.15 K): 0.00249
- solubility (mole fraction) (in isopropanol, 313.15 K): 0.00309
- solubility (mole fraction) (in isopropanol, 318.15 K): 0.00377
- solubility (mole fraction) (in isopropanol, 323.15 K): 0.00462
- solubility (mole fraction) (in methanol, 278.15 K): 0.011
- solubility (mole fraction) (in methanol, 283.15 K): 0.0137
- solubility (mole fraction) (in methanol, 288.15 K): 0.0164
- solubility (mole fraction) (in methanol, 293.15 K): 0.0198
- solubility (mole fraction) (in methanol, 298.15 K): 0.0243
- solubility (mole fraction) (in methanol, 303.15 K): 0.0287
- solubility (mole fraction) (in methanol, 308.15 K): 0.0337
- solubility (mole fraction) (in methanol, 313.15 K): 0.04
- solubility (mole fraction) (in methanol, 318.15 K): 0.0462
- solubility (mole fraction) (in methanol, 323.15 K): 0.0527

— BigSolDB 2.1
